Source: patent US9115134B2, “6-triazolopyridazine sulfanyl benzothiazole derivatives as MET inhibitors” (SANOFI, priority 2007, dated 2015)
Counter-ions that a name gives are not always drawn.

How the values were obtained:
[1] = tested on: HCT116 cells, MKN45 cells; experiment: Test C: Measurement of cell proliferation by 14C-thymidine pulse; assay type: cell-based; conditions: 14C-thymidine incorporation, 96 h of treatment; cell line not given
Procedure: (§1) Stop the reaction with 100 μl of stop solution. Read without delay at […], 0.1 second on Wallac Victor plate reader. • C) Test C: Measurement of cell proliferation by ^14c-thymidine pulse
The cells are seeded into Cytostar 96-well plates in 180 μl for 4 hours at 37° C. and 5% CO2: HCT116 cells at a rate of 2500 cells per well in DMEM medium+10% foetal calf serum+1% L-glutamine and MKN45 cells at a rate of 7500 cells per well in RPMI medium+10% foetal calf serum+1% L-glutamine. After these 4 hours of incubation, the products are added in 10 μl as a 20-fold concentrated solution according to the dilution method mentioned for the ELISA. The products are tested at 10 concentrations in duplicate from 10 000 nM to 0.3 nM with an increment of 3.
After treatment for 72 h, add 10 μl of ^14C-thymidine at 10 μCi/ml to obtain 0.1 μCi per well. The ^14C-thymidine incorporation is measured on a Micro-Beta machine (Perkin-Elmer) after 24 hours of pulse and 96 h of treatment.
All the steps of the assay are automated on BIOMEK 2000 or TECAN stations.

MET [2] = target: T1, MET (Homo sapiens, UniProt P08581); experiment: Test B: Inhibition of the autophosphorylation of MET; ELISA technique (pppY1230,1234,1235) in MKN45 cells; assay type: cell-based; set-up: Seed MKN45 cells into 96-well plates (Cell coat BD polylysine) at 20 000 cells/well; endogenous in cells; host or cells: MKN45 cells; conditions: 1 h treatment, PhosphoMET ELISA
Procedure: Leave to adhere for 24 hours in an incubator.
The cells are treated the day after seeding with the products at 6 concentrations in duplicate for 1 h. At least 3 control wells are treated with the same final amount of DMSO.
Product dilution: Stock at 10 mM in pure DMSO—range from 10 mM to 30 μM with an increment of 3 in pure DMSO—intermediate 1/50 dilutions in culture medium and then removal of 10 μl added directly to the cells (200 μl): final range of 10 000 to 30 nM.
At the end of the incubation, carefully remove the supernatant and rinse with 200 μl of PBS. Next, place 100 μl of lysis buffer directly in the wells on ice and incubate at 4° C. for 30 minutes. Lysis buffer: 10 mM Tris HCl, pH7.4, 100 mM NaCl, 1 mM EDTA, 1 mM EGTA, 1% Triton X-100, 10% glycerol, 0.1% SDS, 0.5% deoxycholate, 20 mM NaF, 2 mM Na3VO4, 1 mM PMSF and cocktail of antiproteases.
The 100 μl of lysates are transferred into a V-bottomed polypropylene plate and the ELISA is performed immediately, or the plate is frozen at −80° C. • b) PhosphoMET ELISA BioSource Kit KH00281
Into each well of the kit plate, add 70 μl of kit dilution buffer+30 μL of cell lysate or 30 μl of lysis buffer for the blanks. Incubate for 2 h with gentle agitation at ambient temperature.
Rinse the wells 4 times with 400 μl of kit washing buffer. Incubate with 100 μl of anti-phospho MET antibody for 1 hour at ambient temperature.
Rinse the wells 4 times with 400 μl of kit washing buffer. Incubate with 100 μl of anti-rabbit HRP antibody for 30 minutes at ambient temperature (except for the wells of chromogen alone).
Rinse the wells 4 times with 400 μl of kit washing buffer. Introduce 100 μL of chromogen and incubate for 30 minutes in the dark at ambient temperature.
as §1
Target sequence in this assay (P08581 25-1390): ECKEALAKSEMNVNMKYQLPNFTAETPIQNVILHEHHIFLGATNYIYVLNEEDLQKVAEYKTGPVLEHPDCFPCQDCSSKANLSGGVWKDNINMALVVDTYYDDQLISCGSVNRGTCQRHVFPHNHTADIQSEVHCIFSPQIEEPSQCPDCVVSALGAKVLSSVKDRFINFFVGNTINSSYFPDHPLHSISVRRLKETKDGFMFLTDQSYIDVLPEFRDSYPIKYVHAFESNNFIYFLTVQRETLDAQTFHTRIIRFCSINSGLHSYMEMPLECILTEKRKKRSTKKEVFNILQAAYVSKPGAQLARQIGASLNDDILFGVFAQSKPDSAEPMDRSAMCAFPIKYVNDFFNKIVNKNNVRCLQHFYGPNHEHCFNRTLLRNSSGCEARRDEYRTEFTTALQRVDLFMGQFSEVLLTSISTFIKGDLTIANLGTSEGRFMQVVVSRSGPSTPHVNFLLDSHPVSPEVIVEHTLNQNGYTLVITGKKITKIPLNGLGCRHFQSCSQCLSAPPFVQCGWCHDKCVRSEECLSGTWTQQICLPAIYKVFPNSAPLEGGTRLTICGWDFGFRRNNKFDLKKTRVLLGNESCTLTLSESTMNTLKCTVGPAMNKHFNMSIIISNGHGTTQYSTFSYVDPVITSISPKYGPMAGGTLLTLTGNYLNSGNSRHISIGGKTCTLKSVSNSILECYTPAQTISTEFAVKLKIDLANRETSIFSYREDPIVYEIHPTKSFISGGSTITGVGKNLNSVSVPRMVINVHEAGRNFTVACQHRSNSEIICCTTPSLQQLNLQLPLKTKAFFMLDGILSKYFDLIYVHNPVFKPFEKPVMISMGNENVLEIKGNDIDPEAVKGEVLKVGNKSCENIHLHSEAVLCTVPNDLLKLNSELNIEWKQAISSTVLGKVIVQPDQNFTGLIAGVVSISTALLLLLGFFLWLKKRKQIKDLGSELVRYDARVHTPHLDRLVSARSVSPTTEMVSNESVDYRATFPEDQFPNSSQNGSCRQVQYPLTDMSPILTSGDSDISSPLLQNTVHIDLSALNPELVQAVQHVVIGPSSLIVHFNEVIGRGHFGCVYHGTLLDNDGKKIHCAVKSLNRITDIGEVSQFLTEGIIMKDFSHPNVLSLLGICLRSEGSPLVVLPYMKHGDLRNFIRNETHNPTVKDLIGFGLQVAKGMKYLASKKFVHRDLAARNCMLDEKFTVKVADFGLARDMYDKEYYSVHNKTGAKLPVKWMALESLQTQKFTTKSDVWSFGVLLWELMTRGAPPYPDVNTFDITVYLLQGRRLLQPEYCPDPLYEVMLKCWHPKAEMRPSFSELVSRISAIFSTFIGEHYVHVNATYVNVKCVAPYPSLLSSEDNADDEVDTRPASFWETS

MET [3] = target: T1, MET; experiment: Test A: HTRF MET assay in 96-well format; assay type: biochemical; set-up: The His-Tev-MET (956-1390) recombinant DNA in pFastBac (Invitrogen) is transfected into insect cells; His tag (N, cleaved yes); TEV cleavage site (N); made in house; host or cells: SF21 insect cells (baculovirus, pFastBac); conditions: MET 5 nM, 10 μM ATP
Procedure: I) Expression and Purification of MET, Cytoplasmic Domain
The His-Tev-MET (956-1390) recombinant DNA in pFastBac (Invitrogen) is transfected into insect cells, and after several viral amplification steps, the final baculovirus stock is tested for the expression of the protein of interest.
After infection for 72 h at 27° C. with the recombinant virus, the SF21 cell cultures are harvested by centrifugation and the cell pellets are stored at −80° C.
The cell pellets are resuspended in lysis buffer (buffer A [50 mM HEPES, pH 7.5, 250 mM NaCl, 10% glycerol, 1 mM TECP]; +cocktail of protease inhibitors, Roche Diagnostics, without EDTA, ref 1873580), stirred at 4° C. until the mixture is homogeneous and then lyzed mechanically using a “Dounce” type apparatus.
After centrifugation, the lysis supernatant is incubated for 2 h at 4° C. with nickel chelate resin (His-Trap 6 Fast Flow™, GE HealthCare). After washing with 20 volumes of buffer A, the suspension is packed into a column, and the proteins are eluted with a gradient of buffer B ([…]+290 mM imidazole).
The fractions containing the protein of interest for the purpose of electrophoretic analysis (SDS PAGE) are combined, concentrated by ultrafiltration (10 kDa cut-off) and injected onto an exclusion chromatography column (Superdex™ 200, GE HealthCare) equilibrated in buffer A.
After enzymatic cleavage of the histidine tag, the protein is reinjected onto a new IMAC nickel chelate chromatography column (His-Trap 6 Fast Flow™, GE HealthCare) equilibrated in buffer A. The fractions eluted with a gradient of buffer B and containing the protein of interest after electrophoresis (SDS PAGE) are finally combined and conserved at −80° C.
For the production of autophosphorylated protein, the previous fractions are incubated for 1 h at ambient temperature after the addition of 2 mM ATP, 2 mM MgCl2, and 4 mM Na3VO4. After the reaction has been stopped with 5 mM of EDTA, the reaction mixture is injected onto a HiPrep desalifying column (GE HealthCare) preequilibrated in buffer A+4 mM Na3VO4, and the fractions containing the protein of interest (SDS PAGE analysis) are combined and stored at −80° C. The degree of phosphorylation is verified by mass spectrometry (LC-MS) and by peptide mapping.
• A) Test A: HTRF MET assay in 96-well format
MET at a final concentration of 5 nM is incubated in a final volume of 50 μl of enzymatic reaction in the presence of the test molecule (for a final concentration range of from 0.17 nM to 10 μM, 3% DMSO final concentration) in 10 mM MOPS buffer, pH 7.4, 1 mM DTT, 0.01% Tween 20. The reaction is initiated with the substrate solution to obtain final concentrations of 1 μg/ml poly-(GAT), 10 μM ATP and 5 mM MgCl2. After incubation for 10 min at ambient temperature, the reaction is stopped with a 30 μl mix so as to obtain a final solution of 50 mM Hepes pH 7.5, 500 mM potassium fluoride, 0.1% BSA and 133 mM EDTA in the presence of 80 ng of streptavidin 61SAXLB Cis-Bio Int. and 18 ng of anti-phosphotyrosine Mab PT66-Europium Cryptate per well. After incubation for 2 hours at ambient temperature, the reading is taken at 2 wavelengths, 620 nm and 665 nm, on a reader for the TRACE/HTRF technique and the % inhibition is calculated from the 665/620 ratios.
Target sequence in this assay (P08581 956-1390): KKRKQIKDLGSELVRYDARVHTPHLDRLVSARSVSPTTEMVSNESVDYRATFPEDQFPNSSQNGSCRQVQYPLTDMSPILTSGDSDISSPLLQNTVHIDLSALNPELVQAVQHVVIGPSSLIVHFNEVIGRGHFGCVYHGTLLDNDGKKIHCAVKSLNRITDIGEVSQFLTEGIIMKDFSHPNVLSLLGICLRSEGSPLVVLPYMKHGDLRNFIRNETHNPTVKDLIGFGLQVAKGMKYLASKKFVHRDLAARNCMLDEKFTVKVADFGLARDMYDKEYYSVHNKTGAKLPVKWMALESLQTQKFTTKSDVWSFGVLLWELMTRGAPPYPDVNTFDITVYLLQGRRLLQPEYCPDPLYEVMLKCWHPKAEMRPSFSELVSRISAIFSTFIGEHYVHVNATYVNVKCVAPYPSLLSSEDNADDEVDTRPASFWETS

SMILES	IC50 [1] [nM]	IC50 (MET [2]) [nM]	IC50 (MET [3]) [nM]
O=C(NCCN1CCOCC1)Nc1nc2ccc(Sc3nnc4ccc(OCC5CCO5)nn34)cc2s1 (stereo not drawn) [Example 34, 1-[2-(Morpholin-4-yl)ethyl]-3-(6-{[6-(oxetan-2-ylmethoxy)[1,2,4]triazolo[4,3-b]pyridazin-3-yl]sulphanyl}-1,3-benzothiazol-2-yl)urea]	< 10000	< 100	< 100
O=C(Nc1nc2ccc(Sc3nnc4ccc(-c5ccc(F)cc5)nn34)cc2s1)OCC1CCO1 (stereo not drawn) [Example 35, Oxetan-2-ylmethyl (6-{[6-(4-fluorophenyl)[1,2,4]triazolo[4,3-b]pyridazin-3-yl]sulphanyl}-1,3-benzothiazol-2-yl)carbamate]	< 1000	< 100	< 100
O=C(NCCN1CCOCC1)Nc1nc2ccc(Sc3nnc4cccnn34)cc2s1 [Example 10, 1-(2-Morpholin-4-ylethyl)-3-[6-([1,2,4]triazolo[4,3-b]pyridazin-3-ylsulphanyl)-1,3-benzothiazol-2-yl]urea]	< 1000	< 100	< 100
CCC(C)CNc1nc2ccc(Sc3nnc4ccc(NCCOC)nn34)cc2s1 (stereo not drawn) [Example 57, N-(2-Methoxyethyl)-3-({2-[(2-methylbutyl)amino]-1,3-benzothiazol-6-yl}sulphanyl)[1,2,4]triazolo[4,3-b]pyridazin-6-amine]	< 1000	100 to 500	< 100
O=C(Nc1nc2ccc(Sc3nnc4n3N=C(c3ccc(F)cc3)CC4)cc2s1)C1CC1 [Example 61, N-(6-{[6-(4-Fluorophenyl)-7,8-dihydro[1,2,4]triazolo[4,3-b]pyridazin-3-yl]sulphanyl}-1,3-benzothiazol-2-yl)cyclopropanecarboxamide]	< 1000	< 100	< 100
O=C(CCCN1CCOCC1)Nc1nc2ccc(Sc3nnc4ccc(-c5ccc(F)cc5)nn34)cc2s1 [Example 15, N-(6-{[6-(4-Fluorophenyl)[1,2,4]triazolo[4,3-b]pyridazin-3-yl]sulphanyl}-1,3-benzothiazol-2-yl)-4-morpholin-4-ylbutanamide]	< 1000	< 100	< 100
CCOc1ccc2nnc(Sc3ccc4nc(NC(=O)CCOC)sc4c3)n2n1 [Example 58, N-{6-[(6-Ethoxy[1,2,4]triazolo[4,3-b]pyridazin-3-yl)sulphanyl]-1,3-benzothiazol-2-yl}-3-methoxypropanamide]	< 1000	< 100	< 100
CC(=O)Nc1nc2ccc(Sc3nnc4ccc(-c5cccc(F)c5)nn34)cc2s1 [Example 65, N-(6-{[6-(3-Fluorophenyl)[1,2,4]triazolo[4,3-b]pyridazin-3-yl]sulphanyl}-1,3-benzothiazol-2-yl)acetamide]	< 1000	< 100	< 100

The next lines start with the values.

IC50 [1] [nM]	IC50 (MET [2]) [nM]	IC50 (MET [3]) [nM]	SMILES
< 1000	< 100	< 100	CN1CCN(c2ccc3nnc(Sc4ccc5nc(NC(=O)OC(C)(C)C)sc5c4)n3n2)CC1 [Example 19, 1,1-Dimethylethyl (6-{[6-(4-methylpiperazin-1-yl)[1,2,4]triazolo[4,3-b]pyridazin-3-yl]sulphanyl}-1,3-benzothiazol-2-yl)carbamate hydrochloride]
< 1000	< 100	< 100	O=C(NCCN1CCOCC1)Nc1nc2ccc(Sc3nnc4ccc(N5CCOCC5)nn34)cc2s1 [Example 28, 1-[2-(Morpholin-4-yl)ethyl]-3-(6-{[6-(morpholin-4-yl)[1,2,4]triazolo[4,3-b]-pyridazin-3-yl]sulphanyl}-1,3-benzothiazol-2-yl)urea]
< 1000	100 to 500	< 100	CCOC(=O)Nc1nc2ccc(Sc3nnc4ccc(OC)nn34)cc2s1 [Example 45, Ethyl {6-[(6-methoxy[1,2,4]triazolo[4,3-b]pyridazin-3-yl)sulphanyl]-1,3-benzothiazol-2-yl}carbamate]
< 1000	100 to 500	< 100	COCCCOC(=O)Nc1nc2ccc(Sc3nnc4ccc(OC)nn34)cc2s1 [Example 46, 3-Methoxypropyl {6-[(6-methoxy[1,2,4]triazolo[4,3-b]pyridazin-3-yl)sulphanyl]-1,3-benzothiazol-2-yl}carbamate]
< 1000	< 100	< 100	O=C(NCCN1CCOCC1)Nc1nc2ccc(Sc3nnc4ccc(-n5ccnc5)nn34)cc2s1 [Example 20, 1-(6-{[6-(1H-Imidazol-1-yl)[1,2,4]triazolo[4,3-b]pyridazin-3-yl]sulphanyl}-1,3-benzothiazol-2-yl)-3-[2-(morpholin-4-yl)ethyl]urea]
< 1000	100 to 500	< 100	O=C(Nc1nc2ccc(Sc3nnc4ccc(-c5ccc(F)cc5)nn34)cc2s1)N1CCOCC1 [Example 55, N-(6-{[6-(4-Fluorophenyl)[1,2,4]triazolo[4,3-b]pyridazin-3-yl]sulphanyl}-1,3-benzothiazol-2-yl)morpholine-4-carboxamide]
